Converted amounts (≈) assume the structure as drawn. “And” between values parts separate entries of the source, which are not always exact repeats. Equal entries are not always repeated.
Legend:
[1] = 25° C.; cited from earlier work
[2] = Tertiary butyl alcohol-water solubility trials (visual); type: physicochemical
Method: Before initiating solvent based Lyophilization trials, a detail assessment of metolazone solubility in Water+TBA (Tertiary butyl alcohol) was carried out to identify optimum ratio of TBA:Water.

[3] = Saturation solubility of metolazone in TBA:water ratios; type: physicochemical; settings: for solubility: aqueous with cosolvent or surfactant or cyclodextrin, thermodynamic from solid
Method: Saturation solubility study of metolazone was conducted in different water to tertiary butyl alcohol ratios ranging from 20-40% of TBA and 80-60% water. The study was conducted in triplicate.

[4] = Diluent selection study: solubility of metolazone in diluent mixtures; type: physicochemical
Method: The diluent selection study was conducted to select the best diluent combination for metolazone. The following components were evaluated in combination with phosphate buffer to check the solubility of metolazone and to observe the solution clarity.
Procedure for Example no ITT-1 to 111-5: An excess amount of drug substance PSD (particle size distribution) 10 micron (60 mg) was added to the 20 mL diluent mixtures specified in Ex. III-1 to II-5 so that the theoretical concentration was 3 mg/mL. After drug addition, these samples were sonicated up to 4 hr using a sonicator at room temperature. Solution clarity and quantitative solubility were observed.

Cc1ccccc1N1C(=O)c2cc(S(N)(=O)=O)c(Cl)cc2NC1C (centres unmarked) [Metolazone, 7-chloro-1,2,3,4-tetrahydro-2-methyl-3-(2-methylphenyl)-4-oxo-6-quinazoline sulfonamide]
solubility in ethanol [1]: 9000 µg/mL (≈ 24.6 mM) | Observations ([2]; Trial 1: WFI, 5.04 mg metolazone, Q.S. to 10 mL): Insoluble | Observations ([2]; Trial 2: 20% TBA, 10.08 mg metolazone, Q.S. to 20 mL): opalescent | Observations ([2]; Trial 3: 30% TBA, 15.12 mg metolazone, Q.S. to 20 mL): clear | Observations ([2]; Trial 4: 40% TBA, 30.24 mg metolazone, Q.S. to 20 mL): clear | Observations ([2]; Trial 5: 50% TBA, 30.24 mg metolazone, Q.S. to 20 mL): clear | Observations ([2]; Trial 6: 60% TBA, 30.24 mg metolazone, Q.S. to 20 mL): clear | Observations ([2]; Trial 7: 30% TBA, 20.16 mg metolazone, Q.S. to 20 mL): clear | Solubility of each trial ([3]; 028A: 20% Tertiary butyl alcohol and 80% water mixture [20:80]): 289 µg/mL and 281 µg/mL | Solubility of each trial ([3]; 028B: 30% Tertiary butyl alcohol and 70% water mixture [30:70]): 948 µg/mL and 1044 µg/mL | Solubility of each trial ([3]; 028C: 40% Tertiary butyl alcohol and 60% water mixture [40:60]): 2122 µg/mL and 2025 µg/mL | slope of metolazone solubility versus TBA fraction in solvent ([3]; FIG. 4): 0.0913 | solubility ([3]; tertiary butyl alcohol/water mixture, 028A: 20% Tertiary butyl alcohol and 80% water mixture [20:80], read-out: Average solubility): 279 µg/mL | solubility ([3]; tertiary butyl alcohol/water mixture, 028A: 20% Tertiary butyl alcohol and 80% water mixture [20:80], read-out: Solubility of each trial): 267 µg/mL | solubility ([3]; tertiary butyl alcohol/water mixture, 028B: 30% Tertiary butyl alcohol and 70% water mixture [30:70], read-out: Average solubility): 1010 µg/mL | solubility ([3]; tertiary butyl alcohol/water mixture, 028B: 30% Tertiary butyl alcohol and 70% water mixture [30:70], read-out: Solubility of each trial): 1050 µg/mL | solubility ([3]; tertiary butyl alcohol/water mixture, 028C: 40% Tertiary butyl alcohol and 60% water mixture [40:60], read-out: Average solubility): 2110 µg/mL | solubility ([3]; tertiary butyl alcohol/water mixture, 028C: 40% Tertiary butyl alcohol and 60% water mixture [40:60], read-out: Solubility of each trial): 2170 µg/mL | solubility ([3]; tertiary butyl alcohol/water mixtures, TBA:water in the ratio of 30:70 to 40:60, read-out: solubility in solvent (TBA:water)): > 1000 µg/mL | solubility ([4]; 40% PEG in buffer, aqueous with cosolvent or surfactant or cyclodextrin, thermodynamic from solid, 40% PEG in all tested buffers, API with particle size D90<10 microns, read-out: solubility): > 1200 µg/mL | solubility ([4]; 40% PEG-400 and 0.4% Kolliphor HS-15 in Tris buffer, pH 7.5, aqueous with cosolvent or surfactant or cyclodextrin, thermodynamic from solid, Ex: III-4, 031D: 40% PEG-400 + Kolliphor HS-15 0.4% + Tris buffer pH 7.5, read-out: Solubility): 2310 µg/mL | solubility ([4]; 40% PEG-400 and 0.4% Kolliphor HS-15 in phosphate buffer, pH 7.5, aqueous with cosolvent or surfactant or cyclodextrin, thermodynamic from solid, Ex: III-3, 031C: 40% PEG-400 + Kolliphor HS-15 0.4% + Phosphate buffer pH 7.5, read-out: Solubility): 2160 µg/mL | solubility ([4]; 40% PEG-400 in Tris buffer, pH 7.5, aqueous with cosolvent or surfactant or cyclodextrin, thermodynamic from solid, Ex: III-2, 031B: 40% PEG-400 + Tris buffer pH 7.5, read-out: Solubility): 1280 µg/mL | solubility ([4]; 40% PEG-400 in phosphate buffer, pH 7.5, aqueous with cosolvent or surfactant or cyclodextrin, thermodynamic from solid, Ex: III-1, 031A: 40% PEG-400 + Phosphate buffer pH 7.5, API PSD 10 micron, sonicated up to 4 hr, room temperature, read-out: Solubility): 1800 µg/mL | solubility ([4]; Ex: III-1, 031A: 40% PEG-400 + Phosphate buffer pH 7.5, API PSD 10 micron, sonicated up to 4 hr, room temperature): 1862 µg/mL | solubility ([4]; tertiary butyl alcohol/water for injection mixture, aqueous with cosolvent or surfactant or cyclodextrin, thermodynamic from solid, Ex: III-5, 031E: 50% Tertiary butyl alcohol and 50% Water for injection, read-out: Solubility): 3120 µg/mL

— patent publication US20250032417A1, “LYOPHILIZED METOLAZONE FORMULATION FOR PARENTERAL ADMINISTRATION” (Hyloris Developments SA, priority 2023, published 2025)
